“Also recorded” adds a separate entry of the source.
How the values were obtained:
Type in all cases: cell-based
[1] = tested on: rat tumor cell lines (ASML, 1AS, G, AT6.1, MTLN3, MTLY, NM081 and MT450); experiment: Tumor cell proliferation, 3H-thymidine incorporation; conditions: 2.5 μM or 10 μM, 24 h, FIG. 4
Protocol: Cells of the rat tumor cell line (Nestl et al., 2001, Cancer Research 61: 1569-1577) were cultivated in the presence of 1% DMSO (solvent control), 2.5 μM or 10 μM of the indolinone for 24 h. Tritiated thymidine was added to the medium during the last 4-6 h of incubation. The cells were harvested and the amount of radioactivity incorporated into the DNA was quantified.
The data are stated in percent relative to the proliferation of the cells treated only with DMSO (% relative to control; see FIG. 4)).
FIG. 4: Measurement of the (^3H)-thymidine incorporation (in %) into rat tumor cell lines (ASML, 1AS, G, AT6.1, MTLN3, MTLY, NM081 and MT450) as a function of the concentration of inhibitors employed. The inhibition of cell proliferation by MAE87, MAE106 and MAZ51 is dose-dependent.

[2] = tested on: Human endothelial cells (HDMEC); experiment: Apoptosis, Cell Death Detection ELISA (nucleosome ELISA); conditions: 24 h, FIG. 5
Protocol: (§1) Human endothelial cells (HDMEC) and rat pancreatic tumor cells (1AS) were resuspended (10^5 cells/ml). 50 μl of cell suspension were seeded in 96-well cell culture plates and incubated at 37° C. for 24 h. The cells were then incubated with the stated concentrations of the various inhibitors for a further 24 h. The pro-apoptotic effect of the compounds was determined using the Cell Death Detection ELISA^plus kit (Roche Diagnostics GmbH, Mannheim) in accordance with the manufacturer's statements. The kit contains a photometric enzyme immunoassay for qualitative and quantitative in vitro determination of cytoplasmic histone-associated DNA fragments (mono- and oligo-nucleosomes) released through active cell death (apoptosis). […] The measurements relative to the untreated cells are plotted against the inhibitor concentration.
(§2) FIG. 5: Nucleosome ELISA test (Cell Death Detection ELISA). The extent of dead cells of the respective cell line is depicted (as relative absorption at 405 nm) in relation to the use of the inhibitors MAE87, MAE106 and MAZ51 and MAZ51-2.

[3] = tested on: rat pancreatic tumor cells (1AS); experiment: as above; conditions: 1AS cells, 24 h; FIG. 5
Protocol: as §1, §2

[4] = tested on: Human umbilical vein endothelial cells (HUVEC); experiment: Endothelial cell proliferation, 3H-thymidine incorporation; conditions: 24 h, FIG. 2
Protocol: Human umbilical vein endothelial cells (HUVEC) underwent serum-starved cultivation for 24 h. The cells were then preincubated with the appropriate compounds for 2 h and subsequently cultivated in the presence of the inhibitors with VEGF (MAE87) or bFGF (MAE106, MAZ51) for a further 24 h. The cells were then incubated with ^3H-thymidine. The amount of radioactivity incorporated into the cellular DNA was measured. All the experiments were carried out in triplicate.
HUVE cells were seeded in 100 μl/well (10^5 cells/ml) in 96-well culture plates and left to rest overnight. The cells were then starved with 50 μl of serum-free medium/well for 24 h. Subsequently, 50 μl of various concentrations of the test substances in serum-free medium (contains 2% DMSO) were added and incubated at 37° C. for 2 h. The medium containing the test compounds was removed and replaced by 50 μl of fresh medium with bFGF (12.5 ng/ml) or VEGF (100 ng/ml). Fresh dilutions of the doubly concentrated test substances in serum-free medium with 2% DMSO were added to the cells in 50 μl/well. The final concentration of DMSO was always 1%. After 24 h, ^3H-thymidine (1 μCi/well) was added, and the cells were incubated for a further 4-6 h. To analyze the incorporated radioactivity, the cells were trypsinized for 30 min and harvested with the aid of a harvester 96 cell (Tomtec) and fixed on a glass fiber membrane filter. The immobilized radioactivity was quantified with the aid of a MicroBeta TriLux liquid scintillation luminescence counter. The result is depicted in FIG. 2.
FIG. 2: Measurement of the (^3H)-thymidine incorporation into human endothelial cells (HUVEC) as a function of the concentration of inhibitors employed (MAE87, MAE106 and MAZ51). The inhibition of cell proliferation by MAE87, MAE106 and MAZ51 is dose-dependent in this case.

Row | Compound | inhibition of tumor cell proliferation (3H-thymidine incorporation, % relative to control) [1] | induction of apoptosis (relative absorption at 405 nm) [2] | induction of apoptosis (relative absorption at 405 nm) [3] | inhibition of cell proliferation (3H-thymidine incorporation) ([4]; bFGF stimulated) | inhibition of cell proliferation (3H-thymidine incorporation) ([4]; VEGF stimulated)
1 | COc1ccc(C=C2C(=O)Nc3ccccc32)cc1F [MAE106, 3-(3-Fluoro-4-methoxybenzylidene)-1,3-dihydroindole-2-one] | dose-dependent | Induced Apoptosis | Induced Apoptosis | dose-dependent | –
2 | O=C1Nc2ccccc2C1=Cc1ccc(O)cc1O [MAE87, 3-(2,4-Dihydroxybenzylidene)-1,3-dihydroindol-2-one] | dose-dependent | Induced Apoptosis | Induced Apoptosis | – | dose-dependent
3 | CN(C)c1ccc(C=C2C(=O)Nc3ccccc32)c2ccccc12 [MAZ51, 3-(4-Dimethylaminonaphthalen-1-ylmethylene)-1,3-dihydroindol-2-one] | greatest inhibitory effect; also recorded: dose-dependent | potent activator of apoptosis | potent activator of apoptosis | dose-dependent | –
